Assay results: ChEMBL document CHEMBL1126981, “Resistance of the 2,2,2-trifluoroethoxy aryl moiety to the cytochrome P-450 metabolism in rat liver microsomes” (Bioorg Med Chem Lett, 1993)
pIC50: −log10 of the molar value.

Species on record: Rattus norvegicus
Test: Inhibition of deethylase activity upon incubation with liver microsomes from phenobarbital induced rats
Format: functional

Row | Compound | pIC50
1 | CC(=O)Nc1ccc(OCC(F)(F)F)cc1 | 4.00
2 | O=c1ccc2ccc(OCC(F)(F)F)cc2o1 | 3.64
